Measurements: patent US20230081529A1 (CBSBIOSCIENCE CO., LTD, priority 2020, published 2023)
Like-named read-outs stand apart in the source and are kept apart here.

What was measured:
[1] = system: hepatocellular carcinoma (HCC) patients; conditions: systemic first-line therapy without predictive biomarkers; cited from earlier work
[2] = system: hepatocellular carcinoma (HCC) patients; assay: Sorafenib treatment of 73 HCC patients: tumor response (mRECIST) and Kaplan-Meier survival; assay type: in vivo, human
Source text: This study included 73 histological confirmed HCC patients. […] All tissues were obtained by needle biopsy. The patients were from Ajou Medical Center (AMC). The protocol of this study was approved by the Institutional Review Boards of Ajou Medical Center (AMC).
From a DCR perspective, patients with complete response (CR), partial response (PR) and stable disease (SD) were considered as responders whereas those with progressive disease (PD) were judged as non-responders.
Relationship between treatment response and clinicopathologic variables was evaluated using Chi square tests or Fishers exact tests. Gene expression data were tested for normality with the Shapiro-Wilk test. […] Receiver operating characteristic (ROC) curve analysis was used to determine accuracy of threshold values classifying tumor responders and non-responders using gene signature. Kaplan-Meier survival (KM) curves were calculated using death as end point in overall survival (OS) and using death and progression disease as end point in progression free survival (PFS). The difference in KM curves was examined by log-rank test and the difference in hazard ratio was examined by Cox regression analysis. […] Significance was set at P<0.05 (two-tailed). All statistics were performed in R version 3.3.3 (R Development Core Team, https:/www.r-project.org/).

[3] = entire patients treated with sorafenib
[4] = predicted good responders (8-gene signature)
[5] = predicted poor responders (8-gene signature)

CNC(=O)c1cc(Oc2ccc(NC(=O)Nc3ccc(Cl)c(C(F)(F)F)c3)cc2)ccn1 [sorafenib]
Median overall survival [1]: 10.7 months | objective response rates [1]: 2% | Median overall survival [2, 3]: 11.3 months | Median progression-free survival [2, 3]: 2.9 months | Median time to progression [2, 3]: 2.9 months | disease control rate ([2]; entire patients, before selection with the 8-gene signature): 28.77% | Tumor response: Progressive disease, number of patients ([2]; non-responders (n = 52)): 52 | Tumor response: Progressive disease, share of group ([2]; non-responders (n = 52)): 100.0% | number of non-responders (PD) ([2]; of 73 patients treated with sorafenib): 52 | disease control rate ([2]; patients selected with the 8-gene signature): 85.71% | Median progression-free survival [2, 4]: 5.8 months | Median time to progression [2, 4]: 5.8 months | Median overall survival [2, 5]: 6.7 months | Median progression-free survival [2, 5]: 2.8 months | Median time to progression [2, 5]: 2.8 months | Tumor response: Complete response, number of patients ([2]; responders (n = 21)): 2 | Tumor response: Complete response, share of group ([2]; responders (n = 21)): 9.5% | Tumor response: Partial response, number of patients ([2]; responders (n = 21)): 9 | Tumor response: Partial response, share of group ([2]; responders (n = 21)): 42.9% | Tumor response: Stable disease, number of patients ([2]; responders (n = 21)): 10 | Tumor response: Stable disease, share of group ([2]; responders (n = 21)): 47.6%
